Several values for one entry are separate records, joined by “and”; a condition that tells them apart may be missing. Equal values may be shown once. Entries after “also recorded” stand apart in the source; their conditions may differ. Read-outs that look alike come from different tables or passages of the source.
Columns and labels:
[1] = tested on: ts2 and ts25 vaccinia virus mutants; type: cell-based
[2] = biological target: vaccinia virus B1 kinase (GST-B1) (Vaccinia virus, UniProt P20505); experiment: biochemical; type: biochemical; conditions: for remaining activity at 10 µM: read-out: Percent activity remaining at 10 μM, B1; for inhibition at 10 µM: read-out: Inhibition of GST-B1 (of the control value)
[3] = tested on: Lck (activated F505 form); type: biochemical; conditions: for Effect on Lck activity (in words): 10 μM
[4] = tested on: wild-type vaccinia virus; experiment: microbe, parasite or virus in culture; type: cell-based; conditions: for inhibition at 100 µM: Orthopoxvirus vaccinia, HeLa
[5] = mouse, in vivo, cited from earlier work
[6] = tested on: vesicular stomatitis virus (VSV); type: cell-based
[7] = tested on: human Ramos B cells

Row | Molecule | remaining activity at 10 µM [2] | Percent Lck activity remaining [3] | Effect on Lck activity (in words) [3] | Effect on virus growth in HeLa cell culture (in words) [4] | Effect on growth of wild-type vaccinia virus (in words) [4] | IC50 [2] | inhibition at 10 µM [2] | Toxic effects in mammals [5] | also measured
1 | 2-methylnaphthalene-bis(hexachlorocyclopentadiene) adduct [reference compound] |  |  |  |  |  |  |  |  | Effect on growth of ts2 and ts25 vaccinia virus, FIG. 1 (in words) [1]: did not inhibit; Effect on growth of ts2 or ts25 vaccinia virus (in words) [1]: no effect
2 | O=S(=O)(O)c1ccc(NN(c2c(O)ccc3ccccc23)S(=O)(=O)O)cc1 [Compound 9600-Q, 4-[N′-(2-hydroxynaphthalen-1-yl)-N′-sulfo-hydrazino]benzenesulfonic acid] | 93 ± 2% | 53 ± 18% | minimally inhibited | no apparent effect |  |  |  |  | Effect on B1 kinase activity in vitro (in words) [2]: inhibiting B1 almost not at all
3 | O=C(O)C=Cc1ccc[c]([Sb](=[O])([OH])[OH])c1 [Compound 13778-J, 3-(3-stibonophenyl)prop-2-enoic acid] |  | 79 ± 9% |  |  | inhibited the growth |  |  |  | Effect on B1 kinase activity in vitro (in words) [2]: inhibiting B1 almost not at all; also recorded: stimulated B1 in vitro
4 | Nc1nc(N)c(/N=N/c2ccc(C(=O)O)c(O)c2)c(N)n1 [Compound 117285-R, 2-hydroxy-4-(2,4,6-triaminopyrimidin-5-yl)diazenyl-benzoic acid] | 4 ± 2% | 76 ± 25% |  | no apparent effect |  | 1 µM | ≥ 87% |  | 
5 | O=C(O)C1CCCCC1c1c2ccc(=O)c(O)c-2oc2c(O)c(O)ccc12 (stereo not drawn) [Compound 119910-U, 2-(4,5,6-trihydroxy-3-oxo-xanthen-9-yl)cyclohexane-1-carboxylic acid] | 0% | 59% | minimally inhibited | no apparent effect |  | 3.5 µM | ≥ 87% | no toxic effects were observed | 
6 | O=C(O)C=Cc1c2ccc(=O)c(O)c-2oc2c(O)c(O)ccc12 [Compound 119911-V, 3-(4,5,6-trihydroxy-3-oxo-xanthen-9-yl)prop-2-enoic acid] | 0% | 70% |  | no apparent effect |  | 3 µM | ≥ 87% | no toxic effects were observed | 
7 | CC1C2C=CC1C(c1c3ccc(=O)c(O)c-3oc3c(O)c(O)ccc13)C2C(=O)O (stereo not drawn) [Compound 119913-X, 7-methyl-6-(4,5,6,-trihydroxy-3-oxo-xanthen-9-yl)-bicyclo[2.2.1]hetp-2-ene-5-carboxylic acid] | 1% | 56% | minimally inhibited |  | inhibited the growth | 2.5 µM | ≥ 87% | no toxic effects were observed | Effect on growth of ts2 and ts25 mutant viruses (in words) [1]: reproducibly inhibited the growth
8 | O=C(O)CCc1c2ccc(=O)c(O)c-2oc2c(O)c(O)ccc12 [Compound 119915-Z, 3-(4,5,6-trihydroxy-3-oxo-xanthen-9-yl)propanoic acid] | 1% | 78% |  | no apparent effect |  | 3 µM | ≥ 87% | no toxic effects were observed | 
9 | O=C(O)c1cccc(/N=N/c2c(S(=O)(=O)O)ccc3c2C(=O)c2ccccc2C3=O)c1O [Compound 125908-P, 3-(9,10-dioxo-2-sulfo-anthracen-1-yl)diazenyl-2-hydroxy-benzoic acid] | 23% | 53% | minimally inhibited | no apparent effect |  |  |  |  | 
10 | O=C1c2ccccc2C(=O)c2c(NC3CCCCC3)ccc(Nc3ccc(S(=O)(=O)O)cc3)c21 [Compound 128437-O, 4-(4-cyclohexylamino-9,10-dioxo-anthracen-1-yl)aminobenzenesulfonic acid] | 47% | 88% |  |  | inhibited the growth |  |  |  | 
11 | CCc1c(O)c2c(c(O)c1C(C)=O)C(=O)c1c(cc(O)c(C(=O)O)c1C(=O)O)C2=O [Compound 170008-Y, 2-acetyl-7,8-bis(dihydroxymethylidene)-3-ethyl-9-hydroxy-anthracene-1,4,6,10-tetrone] | 12% | 81% |  | no apparent effect |  | 2.5 µM | ≥ 87% |  | 
12 | O=C(O)c1cc2c(cc1S(=O)(=O)O)C1C(C3C2C2(Cl)C(Cl)=C(Cl)C3(Cl)C2(Cl)Cl)C2(Cl)C(Cl)=C(Cl)C1(Cl)C2(Cl)Cl (stereo not drawn) [Compound 270718-R, 3-sulfo-2-naphthoic acid-bis(hexachlorocyclopentadiene) adduct] | 12 ± 14% | 86 ± 46% |  |  | inhibited the growth | 2.5 µM | ≥ 87% | no toxic effects were observed | Effect on growth of ts2 and ts25 mutant viruses (in words) [1]: reproducibly inhibited the growth; Effect on growth of ts2 and ts25 vaccinia virus, FIG. 1 (in words) [1]: inhibited the growth; Inhibition of growth of ts2 and ts25, single experiment (FIG. 1) ([1]; 100 µM): 99%; Inhibition of growth of vaccinia virus over 24 hours ([1]; 100 µM): 86-99%; Activity under reduced-serum conditions relative to 10% serum [4]: approximately four-fold; Effect on growth of wild-type vaccinia virus, FIG. 1 (in words) [4]: inhibited the growth; Inhibition of growth of wild-type vaccinia virus [4]: 90% and 99%; inhibition at 100 µM ([4]; read-out: Inhibition of growth of wild-type vaccinia virus, example of FIG. 1): 93%; inhibition at 100 µM ([4]; read-out: Inhibition of wild-type vaccinia virus): 84%; Effect on growth of VSV (in words) [6]: essentially no effect; Effect on growth of VSV, FIG. 1 (in words) [6]: not the growth of VSV; Inhibition of growth of VSV (in words) [6]: slight; Effect on growth of human Ramos B cells [7]: no effect; Toxicity in mice ([5]; 200 mg/kg): No toxicity
13 | CN[C@@H]1C[C@H]2O[C@@](C)([C@@H]1OC)n1c3ccccc3c3c4c(c5c6ccccc6n2c5c31)C(=O)NC4 [staurosporine, reference compound] |  |  |  |  |  |  |  |  | Effect on B1 kinase activity in vitro (in words) [2]: inhibited B1 or F10 kinase

Source: patent publication US8076375B2 (priority 2005, dated 2011)
